IC50 data for 14 compounds are collected here from patent publication US9850203B2, “Autotaxin inhibitor compounds” (PharmAkea, Inc., priority 2013, dated 2017).

The target of the assay is human autotaxin (ATX) (Homo sapiens (Human), UniProt Q13822). The experiment in a line: Human Autotaxin Assay. The format is biochemical. To be noted: concentrated conditioned media from Hep3B cells; LPC substrate, choline release. An outline of the steps: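 Autotaxin source: Hep3B conditioned medium concentrated 20-fold, preincubated with compound 15 min at 37° C in lyso-PLD buffer (100 mM Tris pH 9, 500 mM NaCl, 5 mM MgCl2, 5 mM CaCl2, 0.05% Triton X-100, ±0.2% fatty-acid-free HSA). 100 uM LPC (14:0) then added, 1.5-3 hours at 37° C; choline release measured.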

In general, IC50 refers to the concentration needed to halve the response being measured. For `Cc1c(Sc2cccc(C(=O)O)c2F)c2ccc(Cl)c(F)c2n1CCN1CCc2ccccc21` [Compound 2-73, Sodium 3-((6-chloro-7-fluoro-1-(2-(indolin-1-yl)ethyl)-2-methyl-1H-indol-3-yl)thio)-2-fluorobenzoate], the IC50 was not above 500 nM.
The result for `Cc1c(Sc2cccc(C(=O)O)c2F)c2ccc(Cl)c(F)c2n1CCN1CC2(CC2)c2ccccc21` [Compound 2-74, Sodium 3-((6-chloro-7-fluoro-2-methyl-1-(2-(spiro[cyclopropane-1,3′-indolin]-1′-yl)ethyl)-1H-indol-3-yl)thio)-2-fluorobenzoate] reads not above 500 nM.
Under `Cc1c(Sc2cccc(C(=O)O)c2F)c2ccc(Cl)c(F)c2n1CCN1CC2(CCC2)c2ccccc21` [Compound 2-75, 3-((6-Chloro-7-fluoro-2-methyl-1-(2-(spiro[cyclobutane-1,3′-indolin]-1′-yl)ethyl)-1H-indol-3-yl)thio)-2-fluorobenzoic acid] stands not above 500 nM; under `Cc1c(Sc2cccc(C(=O)O)c2F)c2ccc(Cl)c(F)c2n1CC(=O)N1CC2(CC2)c2cc(F)ccc21` [Compound 3-23, 3-[6-Chloro-7-fluoro-1-[2-(5′-fluorospiro[cyclopropane-1,3′-indoline]-1′-yl)-2-oxo-ethyl]-2-methyl-indol-3-yl]sulfanyl-2-fluoro-benzoic acid], not above 500 nM.
The result for `Cc1c(Sc2cccc(C(=O)O)c2F)c2ccc(Cl)c(F)c2n1CC(=O)N1CC2(CCC2)c2c(F)cccc21` [Compound 3-96, 3-((6-Chloro-7-fluoro-1-(2-(4′-fluorospiro[cyclobutane-1,3′-indolin]-1′-yl)-2-oxoethyl)-2-methyl-1H-indol-3-yl)thio)-2-fluorobenzoic acid] reads not above 500 nM; that for `Cc1c(Sc2cccc(C(=O)O)n2)c2ccc(Cl)c(F)c2n1CC(=O)N1CC2(CCC2)c2c(F)cccc21` [Compound 3-104, 6-((6-Chloro-7-fluoro-1-(2-(4′-fluorospiro[cyclobutane-1,3′-indolin]-1′-yl)-2-oxoethyl)-2-methyl-1H-indol-3-yl)thio)picolinic acid], not above 500 nM; that for `Cc1c(Sc2cccc(C(=O)O)c2F)c2ccc(Cl)c(F)c2n1CC(=O)N1CC2(CCC2)c2ccccc21` [Compound 3-220, 3-((6-Chloro-7-fluoro-2-methyl-1-(2-oxo-2-(spiro[cyclobutane-1,3′-indolin]-1′-yl)ethyl)-1H-indol-3-yl)thio)-2-fluorobenzoic acid], not above 500 nM.
`Cc1c(Sc2cccc(C(=O)O)c2F)c2ccc(Cl)c(F)c2n1CC(=O)N1CC2(CCCC2)c2ccccc21` [Compound 3-221, 3-((6-Chloro-7-fluoro-2-methyl-1-(2-oxo-2-(spiro[cyclopentane-1,3′-indolin]-1′-yl)ethyl)-1H-indol-3-yl)thio)-2-fluorobenzoic acid] showed an IC50 not above 500 nM.
For the compound `O=C(O)c1cccc(Sc2c(C3CC3)n(CC(=O)N3CCc4ccccc43)c3c(F)c(Cl)ccc23)c1F` [Compound 4-29, Sodium 3-((6-chloro-2-cyclopropyl-7-fluoro-1-(2-(indolin-1-yl)-2-oxoethyl)-1H-indol-3-yl)thio)-2-fluorobenzoate], the IC50 is not above 500 nM.
Under `O=C(O)c1cccc(Sc2c(Cl)n(CC(=O)N3CC4(CCC4)c4ccccc43)c3c(F)c(Cl)ccc23)c1F` [Compound 4-121, Sodium 3-((2,6-dichloro-7-fluoro-1-(2-oxo-2-(spiro[cyclobutane-1,3′-indolin]-1′-yl)ethyl)-1H-indol-3-yl)thio)-2-fluorobenzoate] stands not above 500 nM.
The result for `O=C(O)c1cccc(Sc2c(Cl)n(CCN3CC4(CCC4)c4ccccc43)c3c(F)c(Cl)ccc23)c1F` [Compound 5-1, Sodium 3-((2,6-dichloro-7-fluoro-1-(2-(spiro[cyclobutane-1,3′-indolin]-1′-yl)ethyl)-1H-indol-3-yl)thio)-2-fluorobenzoate] reads not above 500 nM; that for `O=C(O)c1cccc(Sc2c(Cl)n(CCN3CC4(CC4)c4ccccc43)c3c(F)c(Cl)ccc23)c1F` [Compound 5-2, Sodium 3-((2,6-dichloro-7-fluoro-1-(2-(spiro[cyclopropane-1,3′-indolin]-1′-yl)ethyl)-1H-indol-3-yl)thio)-2-fluorobenzoate], not above 500 nM.
The compound `O=C(O)c1cccc(Sc2c(C3CC3)n(CCN3CCc4ccccc43)c3c(F)c(Cl)ccc23)c1F` [Compound 5-4, Sodium 3-((6-chloro-2-cyclopropyl-7-fluoro-1-(2-(indolin-1-yl)ethyl)-1H-indol-3-yl)thio)-2-fluorobenzoate] returned an IC50 not above 500 nM.
On to `CON(C)C(=O)Cn1c(C2CC2)c(Sc2cccc(C(=O)O)c2F)c2ccc(Cl)c(F)c21` [Compound 5-7, Sodium 3-((6-chloro-2-cyclopropyl-7-fluoro-1-(2-(methoxy(methyl)amino)-2-oxoethyl)-1H-indol-3-yl)thio)-2-fluorobenzoate], for which the IC50 lay in the range of 500 to 3000 nM.
